What was measured:
[1] = system: Tyrosine-protein kinase ABL1 (Homo sapiens), P00519 [F317L]
[2] = biological target: Activin receptor type-2A (Homo sapiens) (UniProt P27037)
[3] = biological target: Calcium/calmodulin-dependent protein kinase type II subunit alpha (Homo sapiens) (UniProt Q9UQM7)
[4] = biological target: Casein kinase I isoform gamma-1 (Homo sapiens) (UniProt Q9HCP0)
[5] = biological target: Serine/threonine-protein kinase 17B (Homo sapiens) (UniProt O94768)
[6] = biological target: Dual specificity tyrosine-phosphorylation-regulated kinase 1A (Homo sapiens) (UniProt Q13627)
[7] = system: Epidermal growth factor receptor (Homo sapiens), P00533 [L858R]
[8] = system: Epidermal growth factor receptor (Homo sapiens), P00533 [L861Q]
[9] = system: Epidermal growth factor receptor (Homo sapiens), P00533 [UNDEFINED MUTATION]
[10] = biological target: Mitogen-activated protein kinase 3 (Homo sapiens) (UniProt P27361)
Sequence of Mitogen-activated protein kinase 3 (Homo sapiens) (P27361 whole entry): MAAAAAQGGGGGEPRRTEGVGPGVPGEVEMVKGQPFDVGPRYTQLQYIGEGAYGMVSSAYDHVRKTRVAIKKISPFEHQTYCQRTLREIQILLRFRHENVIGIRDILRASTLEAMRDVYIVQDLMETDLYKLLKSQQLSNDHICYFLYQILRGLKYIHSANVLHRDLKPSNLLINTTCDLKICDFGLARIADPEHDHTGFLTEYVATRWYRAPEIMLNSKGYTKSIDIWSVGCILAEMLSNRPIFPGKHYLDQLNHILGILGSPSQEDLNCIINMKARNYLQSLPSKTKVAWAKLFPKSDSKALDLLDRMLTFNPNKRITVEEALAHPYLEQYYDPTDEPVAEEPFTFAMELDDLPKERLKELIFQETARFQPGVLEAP

[11] = biological target: Tyrosine-protein kinase Fer (Homo sapiens) (UniProt P16591)
Sequence of Tyrosine-protein kinase Fer (Homo sapiens) (P16591 whole entry, looked up): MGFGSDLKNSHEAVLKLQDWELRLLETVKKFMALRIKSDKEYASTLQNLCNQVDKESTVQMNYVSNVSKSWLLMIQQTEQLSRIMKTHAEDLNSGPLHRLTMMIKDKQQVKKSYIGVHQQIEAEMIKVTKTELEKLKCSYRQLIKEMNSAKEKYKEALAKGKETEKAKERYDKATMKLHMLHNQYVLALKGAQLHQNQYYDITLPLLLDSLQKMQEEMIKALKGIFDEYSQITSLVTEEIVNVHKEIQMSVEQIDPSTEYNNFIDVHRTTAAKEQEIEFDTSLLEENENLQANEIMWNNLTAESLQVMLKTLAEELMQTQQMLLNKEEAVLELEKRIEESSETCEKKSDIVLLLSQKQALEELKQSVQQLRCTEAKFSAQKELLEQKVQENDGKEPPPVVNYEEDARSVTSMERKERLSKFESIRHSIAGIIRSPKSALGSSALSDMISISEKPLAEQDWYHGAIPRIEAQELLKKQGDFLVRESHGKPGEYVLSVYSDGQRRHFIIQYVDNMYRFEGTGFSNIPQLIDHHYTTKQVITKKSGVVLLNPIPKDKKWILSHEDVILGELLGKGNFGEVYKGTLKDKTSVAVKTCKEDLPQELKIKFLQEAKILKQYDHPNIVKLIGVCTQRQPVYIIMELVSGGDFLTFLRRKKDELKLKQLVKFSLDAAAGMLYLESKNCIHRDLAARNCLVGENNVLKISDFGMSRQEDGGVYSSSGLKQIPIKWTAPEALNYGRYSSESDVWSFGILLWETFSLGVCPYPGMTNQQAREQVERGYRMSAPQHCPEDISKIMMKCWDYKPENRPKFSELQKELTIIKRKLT

[12] = biological target: Insulin-like growth factor 1 receptor (Homo sapiens) (UniProt P08069)
[13] = biological target: T1, Inhibitor of nuclear factor kappa-B kinase subunit alpha (Homo sapiens) (UniProt O15111)
T1 sequence (whole entry): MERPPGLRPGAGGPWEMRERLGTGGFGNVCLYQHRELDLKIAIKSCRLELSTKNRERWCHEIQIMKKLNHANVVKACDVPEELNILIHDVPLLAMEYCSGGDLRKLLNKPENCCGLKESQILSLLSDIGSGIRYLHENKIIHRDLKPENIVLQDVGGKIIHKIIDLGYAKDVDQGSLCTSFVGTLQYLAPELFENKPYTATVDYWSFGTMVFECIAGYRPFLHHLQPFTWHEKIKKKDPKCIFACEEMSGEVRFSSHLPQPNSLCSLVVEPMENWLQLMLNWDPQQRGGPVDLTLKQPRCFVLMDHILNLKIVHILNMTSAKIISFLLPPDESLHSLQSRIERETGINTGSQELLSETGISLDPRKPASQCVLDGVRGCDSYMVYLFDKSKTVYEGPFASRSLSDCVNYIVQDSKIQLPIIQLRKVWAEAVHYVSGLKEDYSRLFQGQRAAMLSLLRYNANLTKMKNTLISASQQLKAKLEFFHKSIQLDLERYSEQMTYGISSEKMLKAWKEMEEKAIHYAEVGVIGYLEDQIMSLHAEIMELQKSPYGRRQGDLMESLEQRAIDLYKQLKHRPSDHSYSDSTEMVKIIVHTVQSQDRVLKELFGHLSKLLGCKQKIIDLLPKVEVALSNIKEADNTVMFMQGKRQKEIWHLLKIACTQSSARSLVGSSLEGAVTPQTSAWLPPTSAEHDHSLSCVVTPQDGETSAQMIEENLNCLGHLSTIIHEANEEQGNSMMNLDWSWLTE

[14] = biological target: Mitogen-activated protein kinase 8 (Homo sapiens) (UniProt P45983)
[15] = biological target: Serine/threonine-protein kinase 26 (Homo sapiens) (UniProt Q9P289)
Sequence of Serine/threonine-protein kinase 26 (Homo sapiens) (Q9P289 2-416 limits assumed): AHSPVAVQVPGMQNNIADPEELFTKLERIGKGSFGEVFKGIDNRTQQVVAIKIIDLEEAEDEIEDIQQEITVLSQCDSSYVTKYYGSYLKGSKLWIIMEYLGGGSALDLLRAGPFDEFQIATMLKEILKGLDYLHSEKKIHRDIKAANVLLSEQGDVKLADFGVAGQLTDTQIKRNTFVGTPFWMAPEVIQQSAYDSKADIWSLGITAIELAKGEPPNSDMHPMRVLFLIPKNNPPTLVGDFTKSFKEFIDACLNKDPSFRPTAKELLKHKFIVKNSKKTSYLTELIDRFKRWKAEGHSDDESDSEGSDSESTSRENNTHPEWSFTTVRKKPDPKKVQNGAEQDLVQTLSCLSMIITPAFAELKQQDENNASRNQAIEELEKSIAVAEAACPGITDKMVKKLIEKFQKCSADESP

[16] = biological target: Cyclin-dependent kinase 18 (Homo sapiens) (UniProt Q07002)
Sequence of Cyclin-dependent kinase 18 (Homo sapiens) (Q07002 whole entry): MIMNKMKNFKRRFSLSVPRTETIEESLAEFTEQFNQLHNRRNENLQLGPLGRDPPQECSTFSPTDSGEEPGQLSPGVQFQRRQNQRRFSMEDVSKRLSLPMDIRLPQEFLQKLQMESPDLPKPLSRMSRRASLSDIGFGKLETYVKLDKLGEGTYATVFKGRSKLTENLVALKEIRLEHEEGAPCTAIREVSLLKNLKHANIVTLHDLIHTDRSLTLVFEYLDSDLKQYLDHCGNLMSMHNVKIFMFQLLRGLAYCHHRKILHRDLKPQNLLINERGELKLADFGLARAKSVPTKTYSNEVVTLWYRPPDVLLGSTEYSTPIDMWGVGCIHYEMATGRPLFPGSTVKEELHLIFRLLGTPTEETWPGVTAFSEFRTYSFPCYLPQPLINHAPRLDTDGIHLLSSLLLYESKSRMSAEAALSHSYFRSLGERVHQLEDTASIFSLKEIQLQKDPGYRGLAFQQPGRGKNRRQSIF

[17] = biological target: Platelet-derived growth factor receptor beta (Homo sapiens) (UniProt P09619)
[18] = biological target: Phosphatidylinositol 4,5-bisphosphate 3-kinase catalytic subunit gamma isoform (Homo sapiens) (UniProt P48736)
[19] = biological target: SNF-related serine/threonine-protein kinase (Homo sapiens) (UniProt Q9NRH2)
[20] = biological target: SRSF protein kinase 1 (Homo sapiens) (UniProt Q96SB4)
Sequence of SRSF protein kinase 1 (Homo sapiens) (Q96SB4 whole entry): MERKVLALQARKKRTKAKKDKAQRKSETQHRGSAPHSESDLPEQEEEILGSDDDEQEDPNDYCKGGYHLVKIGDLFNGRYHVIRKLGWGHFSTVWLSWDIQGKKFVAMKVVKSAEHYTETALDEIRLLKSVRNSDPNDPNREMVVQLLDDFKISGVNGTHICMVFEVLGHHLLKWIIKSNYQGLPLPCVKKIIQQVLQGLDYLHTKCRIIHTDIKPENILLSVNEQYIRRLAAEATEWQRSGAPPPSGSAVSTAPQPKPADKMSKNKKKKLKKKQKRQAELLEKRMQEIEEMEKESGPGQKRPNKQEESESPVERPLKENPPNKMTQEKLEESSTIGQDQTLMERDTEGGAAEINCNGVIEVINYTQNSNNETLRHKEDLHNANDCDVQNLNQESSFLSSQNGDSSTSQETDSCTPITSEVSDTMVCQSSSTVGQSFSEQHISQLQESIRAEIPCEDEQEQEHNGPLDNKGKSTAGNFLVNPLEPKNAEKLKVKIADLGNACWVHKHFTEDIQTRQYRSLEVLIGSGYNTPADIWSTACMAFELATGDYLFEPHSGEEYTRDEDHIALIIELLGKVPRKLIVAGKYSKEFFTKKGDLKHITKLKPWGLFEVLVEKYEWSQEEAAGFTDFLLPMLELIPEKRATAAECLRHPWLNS

[21] = biological target: T2, Dual specificity protein kinase TTK (Homo sapiens) (UniProt P33981)
T2 sequence (whole entry): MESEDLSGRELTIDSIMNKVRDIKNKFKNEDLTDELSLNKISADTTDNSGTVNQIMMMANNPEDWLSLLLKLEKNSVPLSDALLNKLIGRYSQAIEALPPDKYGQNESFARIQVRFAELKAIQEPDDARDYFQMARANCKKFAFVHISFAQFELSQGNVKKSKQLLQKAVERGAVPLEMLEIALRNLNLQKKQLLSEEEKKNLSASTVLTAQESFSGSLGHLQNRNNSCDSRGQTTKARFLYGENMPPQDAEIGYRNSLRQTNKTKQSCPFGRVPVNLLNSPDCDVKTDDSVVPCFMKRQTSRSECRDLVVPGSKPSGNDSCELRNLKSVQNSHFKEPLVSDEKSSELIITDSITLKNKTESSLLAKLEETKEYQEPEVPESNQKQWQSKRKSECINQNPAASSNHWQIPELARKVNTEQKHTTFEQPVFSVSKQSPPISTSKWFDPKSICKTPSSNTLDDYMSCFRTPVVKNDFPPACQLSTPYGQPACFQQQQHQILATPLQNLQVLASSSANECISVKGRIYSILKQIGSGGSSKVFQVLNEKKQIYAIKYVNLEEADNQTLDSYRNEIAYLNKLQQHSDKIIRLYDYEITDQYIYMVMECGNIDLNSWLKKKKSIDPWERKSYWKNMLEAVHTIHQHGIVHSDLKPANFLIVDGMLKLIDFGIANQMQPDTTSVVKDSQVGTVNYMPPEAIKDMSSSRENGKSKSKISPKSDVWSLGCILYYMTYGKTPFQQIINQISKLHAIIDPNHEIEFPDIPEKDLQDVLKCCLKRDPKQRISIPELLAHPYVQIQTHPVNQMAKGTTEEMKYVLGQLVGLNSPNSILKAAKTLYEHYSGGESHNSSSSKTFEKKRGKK

[22] = biological target: Serine/threonine-protein kinase ULK2 (Homo sapiens) (UniProt Q8IYT8)
[23] = biological target: 5-hydroxytryptamine receptor 1D (Homo sapiens) (UniProt P28221); settings: Compound concentration 10.0 uM
[24] = Compound concentration 100.0 nM
[25] = Compound concentration 1000.0 nM

Sequence of Tyrosine-protein kinase ABL1 (Homo sapiens), P00519 [F317L] (P00519 whole entry F317L): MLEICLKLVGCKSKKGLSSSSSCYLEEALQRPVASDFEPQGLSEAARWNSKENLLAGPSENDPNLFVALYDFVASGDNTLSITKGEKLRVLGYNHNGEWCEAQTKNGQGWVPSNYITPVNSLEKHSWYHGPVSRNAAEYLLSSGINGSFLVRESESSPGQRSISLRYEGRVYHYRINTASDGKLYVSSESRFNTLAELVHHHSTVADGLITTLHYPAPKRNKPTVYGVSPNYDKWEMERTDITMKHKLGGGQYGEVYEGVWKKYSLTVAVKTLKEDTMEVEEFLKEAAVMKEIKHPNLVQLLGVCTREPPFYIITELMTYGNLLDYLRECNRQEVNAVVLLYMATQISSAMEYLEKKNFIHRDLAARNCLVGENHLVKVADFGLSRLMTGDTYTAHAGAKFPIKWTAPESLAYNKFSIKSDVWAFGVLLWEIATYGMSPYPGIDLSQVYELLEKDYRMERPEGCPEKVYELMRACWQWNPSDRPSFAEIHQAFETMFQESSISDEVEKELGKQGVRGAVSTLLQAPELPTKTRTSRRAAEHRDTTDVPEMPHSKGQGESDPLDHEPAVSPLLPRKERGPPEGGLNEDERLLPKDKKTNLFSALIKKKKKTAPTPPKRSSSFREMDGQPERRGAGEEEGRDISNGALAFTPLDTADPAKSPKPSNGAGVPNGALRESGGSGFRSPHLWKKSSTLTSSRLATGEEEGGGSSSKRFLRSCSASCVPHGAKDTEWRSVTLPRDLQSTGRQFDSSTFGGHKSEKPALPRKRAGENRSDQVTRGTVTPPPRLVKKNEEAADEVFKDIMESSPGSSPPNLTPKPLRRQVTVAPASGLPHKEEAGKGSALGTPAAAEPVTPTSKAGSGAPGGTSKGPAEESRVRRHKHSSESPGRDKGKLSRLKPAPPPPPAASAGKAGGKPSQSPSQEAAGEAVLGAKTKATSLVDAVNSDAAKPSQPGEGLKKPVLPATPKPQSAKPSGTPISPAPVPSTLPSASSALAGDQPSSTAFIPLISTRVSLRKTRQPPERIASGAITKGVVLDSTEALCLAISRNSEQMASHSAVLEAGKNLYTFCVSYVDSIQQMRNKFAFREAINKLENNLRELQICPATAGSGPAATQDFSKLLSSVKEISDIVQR
Sequence of Activin receptor type-2A (Homo sapiens) (P27037 whole entry): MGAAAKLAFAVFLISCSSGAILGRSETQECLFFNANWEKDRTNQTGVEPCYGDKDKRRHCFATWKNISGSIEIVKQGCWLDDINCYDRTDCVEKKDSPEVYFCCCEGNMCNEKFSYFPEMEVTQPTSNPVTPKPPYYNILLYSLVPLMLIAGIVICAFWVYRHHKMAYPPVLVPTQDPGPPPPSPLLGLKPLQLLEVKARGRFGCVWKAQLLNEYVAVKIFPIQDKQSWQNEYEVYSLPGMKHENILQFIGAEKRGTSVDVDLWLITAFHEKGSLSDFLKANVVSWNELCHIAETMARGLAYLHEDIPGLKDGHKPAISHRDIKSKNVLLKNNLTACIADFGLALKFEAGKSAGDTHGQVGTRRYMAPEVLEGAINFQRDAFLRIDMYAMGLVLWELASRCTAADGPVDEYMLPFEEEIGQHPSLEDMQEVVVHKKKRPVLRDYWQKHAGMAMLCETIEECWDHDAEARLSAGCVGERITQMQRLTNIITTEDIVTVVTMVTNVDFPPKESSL
Sequence of Calcium/calmodulin-dependent protein kinase type II subunit alpha (Homo sapiens) (Q9UQM7 whole entry, canonical isoform): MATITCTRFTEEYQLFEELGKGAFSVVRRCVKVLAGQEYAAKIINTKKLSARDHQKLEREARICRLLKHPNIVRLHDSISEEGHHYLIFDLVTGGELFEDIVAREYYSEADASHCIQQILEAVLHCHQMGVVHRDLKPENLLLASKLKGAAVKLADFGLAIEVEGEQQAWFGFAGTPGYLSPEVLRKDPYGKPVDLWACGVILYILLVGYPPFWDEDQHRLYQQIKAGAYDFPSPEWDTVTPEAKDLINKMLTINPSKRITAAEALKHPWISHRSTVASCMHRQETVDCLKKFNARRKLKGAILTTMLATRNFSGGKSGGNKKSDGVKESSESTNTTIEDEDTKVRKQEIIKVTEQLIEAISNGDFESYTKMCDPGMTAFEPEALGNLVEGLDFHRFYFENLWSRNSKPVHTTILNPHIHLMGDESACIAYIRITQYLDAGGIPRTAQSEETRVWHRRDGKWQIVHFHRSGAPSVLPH

In the case of `C[C@@H]1CN(c2cc(-c3n[nH]c4ccc(OC5(C)CC5)cc34)ncn2)C[C@H](C)O1` [MLi-2], the residual activity [1, 24] is reported as 73%, the residual activity [2, 24] is reported as 94% and the residual activity [3, 24] is reported as 100%. It also gave a residual activity [4, 24] of 100%, a residual activity [5, 24] of 96% and a residual activity [6, 24] of 95%. The residual activity [7, 24] was 82%, the residual activity [8, 24] was 50% and the residual activity [9, 24] was 43%. For the same compound, the residual activity [10, 24] was 87%, the residual activity [11, 24] was 86% and the residual activity [12, 24] was 100%. It also gave a residual activity [13, 24] of 76%, a residual activity [14, 24] of 63% and a residual activity [15, 24] of 76%. The residual activity [16, 24] was 100%, the residual activity [17, 24] was 73% and the residual activity [18, 24] was 72%. It also gave a residual activity [19, 24] of 94%, a residual activity [20, 24] of 100% and a residual activity [21, 24] of 74%. For the same compound, the residual activity [22, 24] was 69% and the inhibition [23] was -7.94%.
For `C[C@@H]1CN(c2cc(-c3nn(C)c4ccc(OC5(C)CC5)cc34)ncn2)C[C@H](C)O1` [MLi-2-NC], the residual activity [1, 25] was 67%, the residual activity [2, 25] was 100% and the residual activity [3, 25] was 98%. For the same compound, the residual activity [4, 25] was 89%, the residual activity [5, 25] was 100% and the residual activity [6, 25] was 81%. For the same compound, the residual activity [7, 25] was 95%, the residual activity [8, 25] was 83% and the residual activity [9, 25] was 74%. For the same compound, the residual activity [10, 25] was 100%, the residual activity [11, 25] was 100% and the residual activity [12, 25] was 100%. The residual activity [13, 25] was 75%, the residual activity [14, 25] was 82% and the residual activity [15, 25] was 74%. It also gave a residual activity [16, 25] of 100%, a residual activity [17, 25] of 100% and a residual activity [18, 25] of 100%. The residual activity [19, 25] was 92%, the residual activity [20, 25] was 88% and the residual activity [21, 25] was 100%. The residual activity [22, 25] was 59% and the inhibition [23] was 4.11%.
